US20210085640A1, “ACYLATED CATECHIN POLYPHENOLS AND METHODS OF THEIR USE FOR THE TREATMENT OF CANCER” (Flagship Pioneering Innovations V, Inc., priority 2018, published 2021)

Legend:
Type in all cases: cell-based
[1] = system: Daudi lymphoma cancer cells; experiment: Cancer cell survival (CellTiter-Glo), Daudi; conditions: Homo sapiens, 72 h
In short: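 Daudi cells (4×10^3/well) were exposed for 72 h at 37 °C to nine concentrations of compound, added as 10× solutions spanning 1 μM–10 mM (fatty acids) or 100 nM–1 mM (others). CellTiter-Glo luminescence gave % survival versus untreated, medium-blank corrected; IC50 derived.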

AGS stomach cancer cells = experiment: Cancer cell survival (CellTiter-Glo), AGS; conditions: 72 h
In short: (§1)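 Log-phase cells are plated at 4×10^3 per well and incubated overnight. Compounds, prepared in media as 10× solutions, are then added and the plates held 72 h at 37 C. Viability is measured by CellTiter-Glo luminescence, and IC50 is derived from survival relative to untreated controls.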

A549 lung cancer cells = experiment: Cancer cell survival (CellTiter-Glo), A549; conditions: Homo sapiens, 72 h
In short: as §1

MCF7 breast cancer cells = experiment: Cancer cell survival (CellTiter-Glo), MCF7; conditions: Homo sapiens, 72 h
In short: as §1

A-431 skin cancer cells = experiment: Cancer cell survival (CellTiter-Glo), A-431; conditions: Homo sapiens, A-431 cells, 72 h
In short: as §1

[2] = system: PC-3 prostate cancer cells; experiment: Cancer cell survival (CellTiter-Glo), PC-3; conditions: Homo sapiens, PC-3 cells, 72 h
In short: as §1

T24 bladder cancer cells = experiment: Cancer cell survival (CellTiter-Glo), T24; conditions: Homo sapiens
In short: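 T24 cells seeded at 4×10^3 cells/well overnight, then exposed 72 h at 37 C, 5% CO2 to nine concentrations in triplicate. Survival measured by CellTiter-Glo luminescence relative to untreated and medium controls; IC50 derived.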

[3] = system: HCT 116 colorectal cancer cells; experiment: Cancer cell survival (CellTiter-Glo), HCT 116; conditions: Homo sapiens, HCT 116 cells, 72 h
In short: as §1

[4] = 317 μM, read-out: Cell survival at given concentration
[5] = 1 mM, read-out: Cell survival at given concentration
[6] = 3 mM, read-out: Cell survival at given concentration
[7] = 10 mM, read-out: Cell survival at given concentration

## CCC(=O)O [propionate]
[1]; 1 μM, Table 4.2, read-out: Cell survival at given concentration
  viability at 1 µM: 97%
[1]; 3 μM, Table 4.2, read-out: Cell survival at given concentration
  viability at 3 µM: 97%
[1]; 10 μM, Table 4.2, read-out: Cell survival at given concentration
  viability at 10 µM: 99%
[1]; 32 μM, Table 4.2, read-out: Cell survival at given concentration
  viability at 32 µM: 99%
[1]; 100 μM, Table 4.2, read-out: Cell survival at given concentration
  viability at 100 µM: 101%
[1]; [4]
  viability at 317 µM: 97%
[1]; [5]
  viability at 1000 µM: 75%
[1]; [6]
  viability at 3000 µM: 47%
[1]; [7]
  viability at 10000 µM: 18%
[1]; Table 4.2
  IC50: 2.73 mM
AGS stomach cancer cells; 1 μM, Table 10.2, read-out: Cell survival at given concentration
  viability at 1 µM: 102%
AGS stomach cancer cells; 3 μM, Table 10.2, read-out: Cell survival at given concentration
  viability at 3 µM: 98%
AGS stomach cancer cells; 10 μM, Table 10.2, read-out: Cell survival at given concentration
  viability at 10 µM: 103%
AGS stomach cancer cells; 32 μM, Table 10.2, read-out: Cell survival at given concentration
  viability at 32 µM: 101%
AGS stomach cancer cells; 100 μM, Table 10.2, read-out: Cell survival at given concentration
  viability at 100 µM: 104%
AGS stomach cancer cells; [4]
  viability at 317 µM: 101%
AGS stomach cancer cells; [5]
  viability at 1000 µM: 103%
AGS stomach cancer cells; [6]
  viability at 3000 µM: 96%
AGS stomach cancer cells; [7]
  viability at 10000 µM: 70%
A549 lung cancer cells; 1 μM, Table 7.2, read-out: Cell survival at given concentration
  viability at 1 µM: 98%
A549 lung cancer cells; 3 μM, Table 7.2, read-out: Cell survival at given concentration
  viability at 3 µM: 98%
A549 lung cancer cells; 10 μM, Table 7.2, read-out: Cell survival at given concentration
  viability at 10 µM: 102%
A549 lung cancer cells; 32 μM, Table 7.2, read-out: Cell survival at given concentration
  viability at 32 µM: 103%
A549 lung cancer cells; 100 μM, Table 7.2, read-out: Cell survival at given concentration
  viability at 100 µM: 101%
A549 lung cancer cells; [4]
  viability at 317 µM: 104%
A549 lung cancer cells; [5]
  viability at 1000 µM: 104%
A549 lung cancer cells; [6]
  viability at 3000 µM: 94%
A549 lung cancer cells; [7]
  viability at 10000 µM: 65%
MCF7 breast cancer cells; 1 μM, Table 5.2, read-out: Cell survival at given concentration
  viability at 1 µM: 99%
MCF7 breast cancer cells; 3 μM, Table 5.2, read-out: Cell survival at given concentration
  viability at 3 µM: 97%
MCF7 breast cancer cells; 10 μM, Table 5.2, read-out: Cell survival at given concentration
  viability at 10 µM: 103%
MCF7 breast cancer cells; 32 μM, Table 5.2, read-out: Cell survival at given concentration
  viability at 32 µM: 102%
MCF7 breast cancer cells; 100 μM, Table 5.2, read-out: Cell survival at given concentration
  viability at 100 µM: 102%
MCF7 breast cancer cells; [4]
  viability at 317 µM: 94%
MCF7 breast cancer cells; [5]
  viability at 1000 µM: 91%
MCF7 breast cancer cells; [6]
  viability at 3000 µM: 77%
MCF7 breast cancer cells; [7]
  viability at 10000 µM: 51%
MCF7 breast cancer cells; Table 5.2
  IC50: > 10 mM
A-431 skin cancer cells; 1 μM, Table 9.2, read-out: Cell survival at given concentration
  viability at 1 µM: 99%
A-431 skin cancer cells; 3 μM, Table 9.2, read-out: Cell survival at given concentration
  viability at 3 µM: 101%
A-431 skin cancer cells; 10 μM, Table 9.2, read-out: Cell survival at given concentration
  viability at 10 µM: 103%
A-431 skin cancer cells; 32 μM, Table 9.2, read-out: Cell survival at given concentration
  viability at 32 µM: 102%
A-431 skin cancer cells; 100 μM, Table 9.2, read-out: Cell survival at given concentration
  viability at 100 µM: 104%
A-431 skin cancer cells; [4]
  viability at 317 µM: 99%
A-431 skin cancer cells; [5]
  viability at 1000 µM: 98%
A-431 skin cancer cells; [6]
  viability at 3000 µM: 89%
A-431 skin cancer cells; [7]
  viability at 10000 µM: 70%
A-431 skin cancer cells; Table 9.2
  IC50: > 10 mM
[2]; 1 μM, Table 8.2, read-out: Cell survival at given concentration
  viability at 1 µM: 100%
[2]; 3 μM, Table 8.2, read-out: Cell survival at given concentration
  viability at 3 µM: 98%
[2]; 10 μM, Table 8.2, read-out: Cell survival at given concentration
  viability at 10 µM: 98%
[2]; 32 μM, Table 8.2, read-out: Cell survival at given concentration
  viability at 32 µM: 101%
[2]; 100 μM, Table 8.2, read-out: Cell survival at given concentration
  viability at 100 µM: 104%
[2]; [4]
  viability at 317 µM: 98%
[2]; [5]
  viability at 1000 µM: 94%
[2]; [6]
  viability at 3000 µM: 84%
[2]; [7]
  viability at 10000 µM: 66%
[2]; Table 8.2
  IC50: > 10 mM
T24 bladder cancer cells; T-24, 1 μM, 72 h, Table 3.2, read-out: Cell survival at given concentration
  viability at 1 µM: 99%
T24 bladder cancer cells; T-24, 3 μM, 72 h, Table 3.2, read-out: Cell survival at given concentration
  viability at 3 µM: 97%
T24 bladder cancer cells; T-24, 10 μM, 72 h, Table 3.2, read-out: Cell survival at given concentration
  viability at 10 µM: 97%
T24 bladder cancer cells; T-24, 32 μM, 72 h, Table 3.2, read-out: Cell survival at given concentration
  viability at 32 µM: 99%
T24 bladder cancer cells; T-24, 100 μM, 72 h, Table 3.2, read-out: Cell survival at given concentration
  viability at 100 µM: 97%
T24 bladder cancer cells; T-24, 317 μM, 72 h, read-out: Cell survival at given concentration
  viability at 317 µM: 98%
T24 bladder cancer cells; T-24, 1 mM, 72 h, read-out: Cell survival at given concentration
  viability at 1000 µM: 89%
T24 bladder cancer cells; T-24, 3 mM, 72 h, read-out: Cell survival at given concentration
  viability at 3000 µM: 83%
T24 bladder cancer cells; T-24, 10 mM, 72 h, read-out: Cell survival at given concentration
  viability at 10000 µM: 60%
T24 bladder cancer cells; T-24, 72 h, Table 3.2, read-out: IC50
  IC50: > 10 mM
[3]; 1 μM, Table 6.2, read-out: Cell survival at given concentration
  viability at 1 µM: 98%
[3]; 3 μM, Table 6.2, read-out: Cell survival at given concentration
  viability at 3 µM: 102%
[3]; 10 μM, Table 6.2, read-out: Cell survival at given concentration
  viability at 10 µM: 103%
[3]; 32 μM, Table 6.2, read-out: Cell survival at given concentration
  viability at 32 µM: 103%
[3]; 100 μM, Table 6.2, read-out: Cell survival at given concentration
  viability at 100 µM: 106%
[3]; [4]
  viability at 317 µM: 103%
[3]; [5]
  viability at 1000 µM: 98%
[3]; [6]
  viability at 3000 µM: 66%
[3]; [7]
  viability at 10000 µM: 19%
[3]; Table 6.2
  IC50: 4.38 mM
